# Measured values taken from publication PMC5515887, “Ruthenium-conjugated chrysin analogues modulate platelet activity, thrombus formation and haemostasis with enhanced efficacy” (Scientific Reports, 2017).
# What was measured:
# [1] = system: platelets (PRP); experiment: LDH cytotoxicity assay in PRP; type: cell-based, human; details: between 6.25 and 100 μM
# Procedure: In order to examine whether the native chrysin and its synthetic derivatives exert any cytotoxic effects in platelets at the concentrations used in this study, the lactate dehydrogenase (LDH) assay was performed using PRP.
# The LDH cytotoxicity assay was performed using the LDH Cytotoxicity Assay Kit (Pierce, Thermo Fisher, UK) according to the manufacturer’s instructions. In brief, the PRP was incubated at 37 °C for 30 minutes. […] Following incubation, the reaction mixture (provided in the kit) was added to the PRP and incubated for 30 minutes. The reaction was then stopped using a stop solution provided in the kit. The absorbance of the mixture was measured at 490–650 nm using a Fluostar Optima spectrofluorimeter (BMG Labtech, Germany). Results provided represent duplicate absorbance measures from three separate donors.
# Figure S7: Cytotoxic effects of chrysin and its synthetic derivatives in platelets. PRP was treated with different concentrations (as used in other experiments) of chrysin or its synthetic derivatives and the LDH cytotoxicity assay was performed according to the manufacturer’s instructions. The data were obtained using platelets from three separate donors and duplicate measures were used for each donor.
# (1 picture or pasted object on this page, not shown here)
# [2] = system: washed human platelets; experiment: Platelet uptake by LC-MS; type: in vitro ADME; details: 100 μM compound, 5 minutes
# Procedure: The compounds taken up by the platelets were extracted with methanol (400 µL). The methanol extract was dried using vacuum centrifugation and reconstituted in 200 µL of methanol for mass spectrometry (LC-MS) analysis.
smiles,measurement,setting,value
O=c1cc(-c2ccccc2)oc2cc(O)cc(O)c12 [chrysin],cytotoxic effects in platelets (LDH),[1],did not show significant cytotoxic effects
same,uptake in platelets,[2],6.86 ± 0.27 µM
